Assay results: paper PMC8190631, “Molecular Interactions between Two LMP2A PY Motifs of EBV and WW Domains of E3 Ubiquitin Ligase AIP4” (Life, 2021)
Ends that are not written are not given here.

Target: T1, WW2 domain of human AIP4 (Homo sapiens, UniProt Q96J02)
T1 construct: The gene (114 bp) encoding the WW2 domain of human AIP4; Ssp DnaB intein (pTWIN1) (N, cleaved yes); made in house
Test: NMR titration (2D 1H-15N HSQC chemical shift perturbation) of WW2 domain with LMP2A constructs
Type: binding

T1 sequence (Q96J02 359-391): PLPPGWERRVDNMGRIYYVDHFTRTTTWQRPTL

PPPPY [PY peptide]
Kd: 389 µM
